Structures can show the parent of a compound that is named as a salt. Where two headings read alike, the source gives them in different places.
Columns and labels:
[1] = tested on: LPS-induced microglia activation; test: Image-based assay of LPS-induced microglia activation (HTS and dose response); type: cell-based, rat; conditions: for inhibition at 10 µM: Rattus norvegicus, Microglia, read-out: LPS % inhibition
[2] = tested on: primary rat microglia; test: Cell toxicity (dead cells, size <150 μm2) in LPS assay
[3] = tested on: fibrin-induced microglia activation; test: Image-based assay of fibrin-induced microglia activation (HTS and dose response); type: cell-based, rat; conditions: for inhibition at 10 µM: Rattus norvegicus, Microglia, read-out: Fibrin % inhibition
[4] = tested on: fibrin- and LPS-induced microglia activation; test: cells; type: cell-based, rat
[5] = tested on: primary rat microglia; test: Cell toxicity (dead cells, size <150 μm2) in coated fibrin (cFib) assay;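 note: share of dead cells sized under 150 µm2 at 10 µM in fibrin-stimulated microglia HTS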
[6] = 48 h, primary microglia HTS, LPS stimulation, increased cell size (>800 μm^2) as marker of activation
[7] = primary microglia HTS, LPS stimulation, decreased size (<150 μm^2) as marker of toxicity
[8] = primary microglia HTS, fibrin stimulation, increased cell size (>800 μm^2) as marker of activation
[9] = quadrant by fibrin and LPS inhibition in HTS of 1907 compounds
[10] = primary microglia HTS, fibrin stimulation, decreased size (<150 μm^2) as marker of toxicity
[11] = primary microglia HTS, LPS stimulation, increased cell size (>800 μm^2) as marker of activation
[12] = primary HTS, 10 μM, LPS-stimulated primary microglia
[13] = primary HTS, 10 μM, LPS assay, dead cells size <150 μm2
[14] = primary HTS, 10 μM, fibrin-stimulated primary microglia
[15] = primary HTS, 10 μM, fibrin assay, dead cells size <150 μm2

Structure (SMILES) | inhibition at 10 µM [1, 6] [%] | LPS % cell toxicity [2, 7] [%] | inhibition at 10 µM [3, 8] [%] | Quadrant (FIG. 5b) [4, 9] | Fibrin % cell toxicity [5, 10] [%] | LPS % inhibition [1, 11] [%] | Fibrin % inhibition [3, 8] [%] | inhibition at 10 µM [1, 12] [%] | LPS % cell toxicity [2, 13] [%] | inhibition at 10 µM [3, 14] [%] | Quadrant (FIG. 5b) ([4]; primary HTS, 10 μM) | Fibrin % cell toxicity [5, 15] [%] | LPS % inhibition [1, 12] [%] | Fibrin % inhibition [3, 14] [%]
Nc1c2ccccc2nc2ccccc12 [Aminacrine] | 118 | 67 | 117 | Q2 | 72 |  |  |  |  |  |  |  |  | 
COc1ccc(CCN2CCC(Nc3nc4ccccc4n3Cc3ccc(F)cc3)CC2)cc1 [Astermizole] |  | 2 |  | Q1 | 1 | 69 | 10 |  |  |  |  |  |  | 
CC(=O)OC[C@H]1O[C@@H]([S-])[C@H](OC(C)=O)[C@@H](OC(C)=O)[C@@H]1OC(C)=O.CCP(CC)CC.[Au+] [Auranofin] |  | 98 |  | Q2 | 94 | 106 | 106 |  |  |  |  |  |  | 
CN(C)CCCOc1nn(Cc2ccccc2)c2ccccc12 [Benzydamine] |  |  |  |  |  |  |  | 30 | 1 | -16 | Q4 | 1 |  | 
OCc1ccccc1 [Benzyl Alcohol] |  |  |  |  |  |  |  | 11 | 0 | -54 | Q4 | 0 |  | 
CC1(C)S[C@@H]2[C@H](NC(=O)Cc3ccccc3)C(=O)N2[C@H]1C(=O)O [Benzylpenicillin] |  |  |  |  |  |  |  | 42 | 0 | 29 | Q4 | 1 |  | 
C[N+](C)(CCOc1ccccc1)Cc1ccccc1.O=C([O-])c1cc2ccccc2cc1O [Bephenium Hydroxynapthoate] |  |  |  |  |  |  |  |  | 0 |  | Q4 | 1 | 19 | 25
COc1c2ccoc2cc2oc(=O)ccc12 [Bergapten] |  |  |  |  |  |  |  | 22 | 0 | -5 | Q4 | 1 |  | 
O=C1CCO1 [Beta-propiolactone, Propiolactone] |  |  |  |  |  |  |  |  | 0 |  | Q4 | 1 | 8 | −12
CNCCc1ccccn1 [Betahistine] |  |  |  |  |  |  |  | 13 | 0 | -29 | Q4 | 1 |  | 
CC(=O)OCC(=O)[C@@]1(O)[C@@H](C)C[C@H]2[C@@H]3CCC4=CC(=O)C=C[C@]4(C)[C@@]3(F)[C@@H](O)C[C@@]21C [Betamethasone Acetate] | 100 | 4 | 107 | Q2 | 3 |  |  |  |  |  |  |  |  | 
O=C(O)CCNC(=O)c1ccccc1 [Betamipron] |  |  |  |  |  |  |  | 14 | 0 | -6 | Q4 | 1 |  | 
CC(C)(Oc1ccc(CCNC(=O)c2ccc(Cl)cc2)cc1)C(=O)O [Bezafibrate] |  |  |  |  |  |  |  | 18 | 0 | -4 | Q4 | 0 |  | 
CC(C)(C)CC(C)(C)c1cc(Cc2cc(C(C)(C)CC(C)(C)C)cc(-n3nc4ccccc4n3)c2O)c(O)c(-n2nc3ccccc3n2)c1 [Bisoctrizole] |  |  |  |  |  |  |  | 20 | 0 | 33 | Q4 | 0 |  | 
CC(C)NCC(O)COc1ccc(COCCOC(C)C)cc1 (stereo not drawn) [Bisoprolol] |  |  |  |  |  |  |  | 13 | 0 | 1 | Q4 | 0 |  | 
S=C=Nc1ccc(N=C=S)cc1 [Bitoscanate] |  |  |  |  |  |  |  | 3 | 1 | -9 | Q4 | 1 |  | 
Cc1cc2c(OCC(CNC(C)(C)C)OC(=O)c3ccccc3)cccc2[nH]1 (stereo not drawn) [Bopindolol] | 81 | 2 | 105 | Q2 | 6 |  |  |  |  |  |  |  |  | 
COc1ccccc1Oc1c(NS(=O)(=O)c2ccc(C(C)(C)C)cc2)nc(-c2ncccn2)nc1OCCO [Bosentan] |  |  |  |  |  |  |  | 10 | 0 | -14 | Q4 | 1 |  | 

Structure (SMILES) | inhibition at 10 µM [1, 6] [%] | LPS % cell toxicity [2, 7] [%] | inhibition at 10 µM [3, 8] [%] | Quadrant (FIG. 5b) [4, 9] | Fibrin % cell toxicity [5, 10] [%] | LPS % inhibition [1, 11] [%] | Fibrin % inhibition [3, 8] [%] | inhibition at 10 µM [1, 12] [%] | LPS % cell toxicity [2, 13] [%] | inhibition at 10 µM [3, 14] [%] | Quadrant (FIG. 5b) ([4]; primary HTS, 10 μM) | Fibrin % cell toxicity [5, 15] [%] | LPS % inhibition [1, 12] [%] | Fibrin % inhibition [3, 14] [%]
CCN[C@H]1CN(CCCOC)S(=O)(=O)c2sc(S(N)(=O)=O)cc21 [Brinzolamide] |  |  |  |  |  |  |  | 5 | 0 | -3 | Q4 | 0 |  | 
Nc1c(CC(=O)O)cccc1C(=O)c1ccc(Br)cc1 [Bromfenac] |  |  |  |  |  |  |  | 0 | 0 | -12 | Q4 | 1 |  | 
CN(Cc1cc(Br)cc(Br)c1N)C1CCCCC1 [Bromhexine] |  |  |  |  |  |  |  | 11 | 0 | -16 | Q4 | 0 |  | 
O=C1c2ccccc2C(=O)C1c1ccc(Br)cc1 [Bromindione] |  |  |  |  |  |  |  | 27 | 0 | 17 | Q4 | 1 |  | 
CC(C)C[C@H]1C(=O)N2CCC[C@H]2[C@]2(O)O[C@](NC(=O)[C@@H]3C=C4c5cccc6[nH]c(Br)c(c56)C[C@H]4N(C)C3)(C(C)C)C(=O)N12 [Bromocriptine Mesylate] |  |  |  |  |  |  |  | 24 | 0 | 26 | Q4 | 1 |  | 
CN(C)CCC(c1ccc(Br)cc1)c1ccccn1 (stereo not drawn) [Brompheniramine] |  |  |  |  |  |  |  | -7 | −1 | -20 | Q4 | 1 |  | 
O=[N+]([O-])C(Br)(CO)CO [Bronopol] | 119 | 61 | 43 | Q1 | 2 |  |  |  |  |  |  |  |  | 
Cc1ccc2c(Br)cc(Br)c(OC(=O)c3ccccc3)c2n1 [Broxaldine] |  |  |  |  |  |  |  | 6 | 0 | 19 | Q4 | 1 |  | 
Oc1c(Br)cc(Br)c2cccnc12 [Broxyquinoline] |  |  |  |  |  |  |  | 8 | 0 | -25 | Q4 | 0 |  | 
COc1cc2c(cc1OC)[C@@]13CCN4CC5=CCO[C@H]6CC(=O)N2[C@H]1[C@H]6[C@H]5C[C@H]43 [Brucine] |  |  |  |  |  |  |  | 13 | 0 | 6 | Q4 | 1 |  | 
CCCC(=O)Nc1ncnc2c1ncn2[C@@H]1O[C@@H]2COP(=O)(O)O[C@H]2[C@H]1OC(=O)CCC [Bucladesine] |  |  |  |  |  |  |  | 24 | 0 | 10 | Q4 | 1 |  | 
CCCCOc1ccc(CC(=O)NO)cc1 [Bufexamac] |  |  |  |  |  |  |  | 17 | 0 | -2 | Q4 | 1 |  | 
COc1cc(OC)c(C(=O)CCCN2CCCC2)c(OC)c1 [Buflomedil, Buflomedil Hydrochloride] |  |  |  |  |  |  |  |  | 1 |  | Q4 | 1 | 13 | −37
CCCCNc1cc(C(=O)O)cc(S(N)(=O)=O)c1Oc1ccccc1 [Bumetanide] |  |  |  |  |  |  |  | 18 | 1 | -3 | Q4 | 1 |  | 
CCCCN1CCCCC1C(=O)Nc1c(C)cccc1C (stereo not drawn) [Bupivacaine] |  |  |  |  |  |  |  | 23 | 0 | 12 | Q4 | 1 |  | 
O=C(NCc1ccccc1)OCCO [Buramate] |  |  |  |  |  |  |  | 17 | 0 | 9 | Q4 | 1 |  | 
CCCCN(CCCC)CCCOC(=O)c1ccc(N)cc1 [Butacaine] |  |  |  |  |  |  |  | 3 | 0 | -18 | Q4 | 0 |  | 
CCCCOC(=O)c1ccc(N)cc1 [Butamben] |  |  |  |  |  |  |  | 14 | 1 | -25 | Q4 | 0 |  | 

— patent US20210330611A1, “THERAPY FOR NEUROLOGICAL DISEASES/DISORDERS” (priority 2020, published 2021)
